In US20030103945A1, “Methods and compositions for stimulating axon regeneration and preventing neuronal cell degeneration” (priority 2001, published 2003):
Where a SMILES comes first, the peptide text is derived from it. The star is where a group is joined. Cbz = O=C(OCc1ccccc1)*; CH2F = FC*

Columns and labels:
[1] = system: RGCs; experiment: Dissociated retinal cell culture, RGC survival and neurite outgrowth; type: cell-based, mouse; parameters: RGC death in dissociated retinal cell culture: dose or concentration left out as unconfirmed
Description: Whether these two activities of neurons, survival and axonal growth, can be separated in vitro was next examined. The anti-apoptotic function of bcl-2 is well established (Davies, A. A TINS 18, 355-358 (1995); Korsmeyer, S. J. hnmunol. Today 13, 285-288 (1992); Farlie, et al. Proc. Natl. Acad Sci. USA 92, 4397-4401 (1995); Bonfanti, L. et al. J Neurosci. 16, 4186-4194 (1996)). Therefore, it is especially important to examine whether its growth-promoting activity is simply an indirect consequence of supporting cell survival. […] Note that this occurs in the absence of any neurotrophic factors added to the culture medium. The effect of the ICE inhibitor was also tested in the explant coculture system with tissue prepared from wild-type P2 mice. […] While treatment with ZVAD was sufficient to prevent death of RGCs, it is not sufficient to promote axonal growth. […]
The brain sections were visualized with a Nikon microscope and site of the lesion was reconstructed in 3 dimensions with MIT Neurotrace computer software. […] Cell death was detected by staining with the fluorescent dye, SYTOX green fluorescent dead cell stain (Molecular Probes). […]

[2] = system: retinal explants; experiment: Retinotectal explant coculture, cell death (SYTOX green) and retinal axon growth; type: cell-based, mouse; parameters: protection of cells from death compared with bcl-2 transgenic mouse: dose or concentration left out as unconfirmed; conditions: wild-type P2 mice
Description: Whether these two activities of neurons, survival and axonal growth, can be separated in vitro was next examined. The anti-apoptotic function of bcl-2 is well established (Davies, A. A TINS 18, 355-358 (1995); Korsmeyer, S. J. hnmunol. Today 13, 285-288 (1992); Farlie, et al. Proc. Natl. Acad Sci. USA 92, 4397-4401 (1995); Bonfanti, L. et al. J Neurosci. 16, 4186-4194 (1996)). Therefore, it is especially important to examine whether its growth-promoting activity is simply an indirect consequence of supporting cell survival. […] Note that this occurs in the absence of any neurotrophic factors added to the culture medium. The effect of the ICE inhibitor was also tested in the explant coculture system with tissue prepared from wild-type P2 mice. […] While treatment with ZVAD was sufficient to prevent death of RGCs, it is not sufficient to promote axonal growth. […] Evidence from other investigators (when viewed in conjunction with that provided herein) also support the theme that cell survival and axonal growth are two independent activities of neurons (Sagot, Y., Tan, S. A-Hammang, J. P., Aebischer, P. & Kato, A. C. J Neurosci. 16, 2335-2341 (1996); Dusart, 1. & Sotelo, C. J Comp. Neurol. 347, 211-232 (1994)). The regenerative failure of retinal axons and the decrease of bcl-2 levels in RGCs occur (E 18) before programmed cell death starts (P 1 P5) (Young, R. W. J Comp. Neurol. 229, 362-373 (1984)). […] These all support the position that bcl-2 promotes axonal growth through a mechanism independent of its anti apoptotic activity.
Brains were dissected into ice-cold Gey's balanced salt solution enriched with glucose. […] Retinal explants were abutted against tectal slices. Tissues were placed on the microporous membrane of Millicell wells (Millipore) and maintained in NeuralBasal medium supplemented with B27 (GIBCO Inc., New York) at 370C for five days. To exclude the possibility that tectal tissues from mutant mice may affect axonal growth of RGCs, a series of parallel experiments were performed in which one retinal explant of each mouse was confronted with the tecturn from the same mouse, while the second retinal explant was placed against the tecturn from another mouse. With this arrangement, retinal explants from each animal had the possibility of being cocultured with the tecturn from a wild-type, heterozygous, or homozygous animal. The number of regenerating axons was sampled by applying the lipophilic carbocyanine fluorescent label, DiI, in crystals to fixed retinal explants. The cocultures were stored in fixative for two-four weeks to allow diffusion of the dye, and labeled retinal axons were viewed with a fluorescence microscope (Nikon).
The brain sections were visualized with a Nikon microscope and site of the lesion was reconstructed in 3 dimensions with MIT Neurotrace computer software. Primary cultures of dissociated retinal cells were prepared from […] wild type or transgenic animals. RGCs were prelabeled by injecting DiI solution (25% in Dimethyl Formamide) into the tectal region bilaterally in PO pups. Cells were plated in 24-cell wells treated with poly-L-lysine (10 μg/ml, 4° C. overnight) and coated with Human Merosin ([…], r.t., 2 hr)(Meyer-Franke, A. and Barres, B. A. Neuron 15, 805-819 (1995)). Cultures were maintained for 2 to 3 days in NeuralBasal medium supplemented with B27. […] Cell death was detected by staining with the fluorescent dye, SYTOX green fluorescent dead cell stain (Molecular Probes). […]

[3] = increasing concentration of ZVAD (50, 100, 200)

With `CC(C)[C@H](NC(=O)OCc1ccccc1)C(=O)N[C@@H](C)C(=O)N[C@@H](CC(=O)O)C(=O)CF` [ZVAD, Z-Val-Ala-Asp-CH2F] (Cbz-Val-Ala-Asp-CH2F) the “RGC death in dissociated retinal cell culture” value ([1]; 2 days in culture, retinae of P2 pups) was “effectively reduced RGC death”, the “morphology and neurites of labeled RGCs from wild-type animals” value ([1]; ZVAD-treated dissociated culture, no neurotrophic factors added) was “round and devoid of neurites” and the “number of axons that invaded tectal slices, wild-type cultures versus bcl-2 transgenic mice” value ([2]; 200 mM ZVAD) was 10 fold less. The “number of dying cells in retinal explants with increasing concentration” value [2, 3] was “decreased”, the “number of growing axons with increasing concentration” value [2, 3] was “did not change significantly” and the “protection of cells from death compared with bcl-2 transgenic mouse” value [2] was “protected cells from death almost as well as bcl-2 in the transgenic mouse”. For the same molecule, the “extent of cell death in retinal explants” value ([2]; explant coculture) was “reduced the extent of cell death in retinal explants”.
